Measured values from patent publication US11884651B1, “7-(4-((4-benzylidene-5-oxo-2-phenyl-4,5-dihydro-1H-imidazol-1-yl)methyl)piperazin-1-yl)-1-cyclopropyl-6-fluoro-4-oxo-1,4-dihydroquinoline-3-carboxylic acid as an anti-inflammatory compound” (KING FAISAL UNIVERSITY, priority 2023, dated 2024).

Tests used:
[1] = target: Bovine Serum Albumin (BSA) (Bos taurus, UniProt P02769); assay: Bovine Serum Albumin Assay (BSA), inhibition of heat-induced protein denaturation (in vitro anti-inflammatory activity); format: biochemical
Experimental: Bovine Serum Albumin Assay (BSA) In vitro-inflammatory activities of the tested samples were determined using a modified method of the BSA assay reported by Williams et al. BSA solution (0.4%, w/v) was prepared in Tris Buffered Saline. The pH was adjusted to 6.4 with glacial acetic acid. Different dilutions of 20, 40, 60, 80, and 100 pg/mL of the stock solutions of 7-(4((4-benzylidene-5-oxo-2-phenyl-4,5-dihydro-1H-imidazol-1-yl)methyl)piperazin-1-yl)-1-cyclopropyl-6-fluoro-4-oxo-1,4-dihydroquinoline-3-carboxylic acid (4) were added to test tubes containing 1 mL of 0.4%, w/v BSA buffer solution. Both negative (solvent) and positive (aspirin) controls were assayed in a similar manner. The solutions were then heated in a water bath at 72° C. for 10 minutes and cooled for 20 minutes under laboratory conditions. The turbidity of the solutions (level of protein precipitation) was measured at 660 nm in Spectrophotometer (V-770 UV-Visible/NIR Spectrophotometer). The percentage inhibition of precipitation (protein denaturation) was determined relative to the negative control using the following equation: [formula] [formula]

Bovine Serum Albumin (BSA), sequence (P02769 25-607): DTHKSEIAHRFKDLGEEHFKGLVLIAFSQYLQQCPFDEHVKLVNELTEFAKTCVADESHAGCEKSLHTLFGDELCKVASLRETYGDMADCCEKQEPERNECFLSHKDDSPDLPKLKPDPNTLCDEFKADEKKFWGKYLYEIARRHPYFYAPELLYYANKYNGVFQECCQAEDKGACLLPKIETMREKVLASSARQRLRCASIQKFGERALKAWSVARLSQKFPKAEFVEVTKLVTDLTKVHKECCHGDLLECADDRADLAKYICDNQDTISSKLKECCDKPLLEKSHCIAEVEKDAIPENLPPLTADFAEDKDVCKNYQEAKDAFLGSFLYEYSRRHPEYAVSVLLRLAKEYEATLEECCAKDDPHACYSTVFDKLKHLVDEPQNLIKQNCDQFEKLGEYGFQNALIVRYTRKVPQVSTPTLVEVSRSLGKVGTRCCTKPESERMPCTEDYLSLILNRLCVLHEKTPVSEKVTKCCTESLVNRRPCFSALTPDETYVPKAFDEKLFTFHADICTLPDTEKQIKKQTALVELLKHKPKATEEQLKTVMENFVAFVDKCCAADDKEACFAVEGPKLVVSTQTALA

SMILES	percentage inhibition of precipitation (protein denaturation) ([1]; 100 pg/ml (concentration printed for aspirin), 0.4% w/v BSA, pH 6.4, 72° C. for 10 minutes, turbidity at 660 nm, relative to negative control) [%]	in vitro anti-inflammatory activity (result in words) ([1]; BSA assay)	percentage inhibition of precipitation (protein denaturation) ([1]; bovine, 10 min, 100 pg/mL, pH 6.4) [%]	melting point [°C]
CC(=O)Oc1ccccc1C(=O)O [aspirin, reference compound]	90.75			
O=C(O)c1cn(C2CC2)c2cc(N3CCN(CN4C(=O)/C(=C\c5ccccc5)N=C4c4ccccc4)CC3)c(F)cc2c1=O [Compound 4, 7-(4-((4-benzylidene-5-oxo-2-phenyl-4,5-dihydro-1H-imidazol-1-yl)methyl)piperazin-1-yl)-1-cyclopropyl-6-fluoro-4-oxo-1,4-dihydroquinoline-3-carboxylic acid]		considerable anti-inflammatory effect	84.78	232 to 234
